Assay results from ChEMBL document CHEMBL5042533, “Structural Optimization and Structure-Activity Relationship Studies of 6,6-Dimethyl-4-(phenylamino)-6H-pyrimido[5,4-b][1,4]oxazin-7(8H)-one Derivatives as A New Class of Potent Inhibitors of Pan-Trk and Their Drug-Resistant Mutants” (J Med Chem, 2022).
Activity calls are given as the source filed them. No cut-off for these calls is given here.

Assays:
[1] = system: BaF3; assay: Inhibition of ERK phosphorylation in mouse BaF3 cells expressing CD74 fused TrkA incubated for 6 hrs by Western blot analysis; type: cell-based; settings: dose 3-300 nM
[2] = molecular target: T1, 1-phosphatidylinositol 4,5-bisphosphate phosphodiesterase gamma-1 (Homo sapiens) (UniProt P19174); assay: Inhibition of PLCgamma1 phosphorylation in human KM12-luc cells incubated for 6 hrs by Western blot analysis; type: cell-based; settings: dose 3-300 nM
T1 sequence (whole entry): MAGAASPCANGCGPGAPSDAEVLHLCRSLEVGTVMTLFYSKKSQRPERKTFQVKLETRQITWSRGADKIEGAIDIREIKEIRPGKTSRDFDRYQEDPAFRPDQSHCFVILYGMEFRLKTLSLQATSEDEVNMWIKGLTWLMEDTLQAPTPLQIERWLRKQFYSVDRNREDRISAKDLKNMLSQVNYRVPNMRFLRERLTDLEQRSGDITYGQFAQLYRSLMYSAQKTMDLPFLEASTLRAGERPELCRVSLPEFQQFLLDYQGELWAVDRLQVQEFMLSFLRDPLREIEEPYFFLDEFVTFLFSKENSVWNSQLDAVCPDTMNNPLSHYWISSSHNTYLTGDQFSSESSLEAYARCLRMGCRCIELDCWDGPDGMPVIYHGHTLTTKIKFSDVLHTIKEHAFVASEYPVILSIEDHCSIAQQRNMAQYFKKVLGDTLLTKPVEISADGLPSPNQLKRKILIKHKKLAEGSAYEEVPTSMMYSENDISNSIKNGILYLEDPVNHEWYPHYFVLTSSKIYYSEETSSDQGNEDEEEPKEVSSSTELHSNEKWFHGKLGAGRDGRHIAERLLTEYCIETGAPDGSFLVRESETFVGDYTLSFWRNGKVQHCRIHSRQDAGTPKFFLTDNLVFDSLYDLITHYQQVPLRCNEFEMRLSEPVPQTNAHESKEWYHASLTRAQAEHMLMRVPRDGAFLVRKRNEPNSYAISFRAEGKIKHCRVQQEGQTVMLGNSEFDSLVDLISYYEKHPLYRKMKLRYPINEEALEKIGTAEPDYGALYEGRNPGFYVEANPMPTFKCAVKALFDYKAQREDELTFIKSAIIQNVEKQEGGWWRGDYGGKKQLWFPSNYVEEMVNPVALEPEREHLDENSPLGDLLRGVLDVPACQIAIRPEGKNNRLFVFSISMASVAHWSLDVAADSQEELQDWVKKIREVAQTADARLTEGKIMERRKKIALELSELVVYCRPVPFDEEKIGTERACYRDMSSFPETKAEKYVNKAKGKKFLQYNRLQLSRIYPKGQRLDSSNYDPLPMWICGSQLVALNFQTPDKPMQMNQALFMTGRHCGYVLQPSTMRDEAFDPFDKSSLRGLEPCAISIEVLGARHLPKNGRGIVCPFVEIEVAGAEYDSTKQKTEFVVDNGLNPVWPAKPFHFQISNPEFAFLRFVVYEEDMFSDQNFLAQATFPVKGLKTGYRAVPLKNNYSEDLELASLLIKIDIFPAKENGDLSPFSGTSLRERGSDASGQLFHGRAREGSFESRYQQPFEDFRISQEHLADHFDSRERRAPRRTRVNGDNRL

[3] = system: BaF3; assay: Antitumour activity against larotrectinib-resistant mouse BaF3 cells expressing TEL fused TrkC G623R mutant allografted in NOD-SCID mouse assessed as reduction in tumor growth at 10 mg/kg/day, iv qd measured every 2 or 3 days for 10 days; type: functional, organism-based; settings: time 10.0 day
[4] = system: BaF3; assay: In vivo inhibition of Trk signalling in NOD-SCID mouse allografted with mouse BaF3 cells expressing TEL fused TrkC G623R mutant assessed as reduction in p-Erk level at 5 to 20 mg/kg, iv qd measured after 10 days by IHC staining based analysis; type: functional, organism-based; settings: dose 5-20 mg/kg, time 10.0 day
[5] = system: BaF3; assay: Inhibition of PLCgamma1 phosphorylation in mouse BaF3 cells expressing CD74 fused TrkA incubated for 6 hrs by Western blot analysis; type: cell-based; settings: dose 3-300 nM
[6] = molecular target: Tyrosine-protein kinase FRK (Homo sapiens, UniProt P42685); assay: Inhibition of human PTK5 in presence of ATP by radiometric assay
Chain of Tyrosine-protein kinase FRK (P42685 whole entry): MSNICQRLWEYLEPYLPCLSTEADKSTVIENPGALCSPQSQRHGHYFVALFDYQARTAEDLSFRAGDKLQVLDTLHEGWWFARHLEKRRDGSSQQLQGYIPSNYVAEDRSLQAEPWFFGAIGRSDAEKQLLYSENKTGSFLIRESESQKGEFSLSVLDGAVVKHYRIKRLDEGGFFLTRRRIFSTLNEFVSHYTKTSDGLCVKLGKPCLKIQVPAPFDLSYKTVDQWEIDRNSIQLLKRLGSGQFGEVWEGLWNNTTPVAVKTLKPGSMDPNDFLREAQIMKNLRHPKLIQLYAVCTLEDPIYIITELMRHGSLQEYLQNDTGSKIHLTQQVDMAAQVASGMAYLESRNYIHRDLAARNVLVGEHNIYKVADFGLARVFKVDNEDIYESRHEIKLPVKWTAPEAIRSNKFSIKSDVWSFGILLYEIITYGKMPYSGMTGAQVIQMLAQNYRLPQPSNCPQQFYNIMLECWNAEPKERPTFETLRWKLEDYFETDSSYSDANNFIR

[7] = molecular target: T2, Tyrosine-protein kinase receptor TYRO3 (Homo sapiens, UniProt Q06418); assay: Inhibition of human RSE in presence of ATP by radiometric assay
T2 sequence (Q06418 whole entry): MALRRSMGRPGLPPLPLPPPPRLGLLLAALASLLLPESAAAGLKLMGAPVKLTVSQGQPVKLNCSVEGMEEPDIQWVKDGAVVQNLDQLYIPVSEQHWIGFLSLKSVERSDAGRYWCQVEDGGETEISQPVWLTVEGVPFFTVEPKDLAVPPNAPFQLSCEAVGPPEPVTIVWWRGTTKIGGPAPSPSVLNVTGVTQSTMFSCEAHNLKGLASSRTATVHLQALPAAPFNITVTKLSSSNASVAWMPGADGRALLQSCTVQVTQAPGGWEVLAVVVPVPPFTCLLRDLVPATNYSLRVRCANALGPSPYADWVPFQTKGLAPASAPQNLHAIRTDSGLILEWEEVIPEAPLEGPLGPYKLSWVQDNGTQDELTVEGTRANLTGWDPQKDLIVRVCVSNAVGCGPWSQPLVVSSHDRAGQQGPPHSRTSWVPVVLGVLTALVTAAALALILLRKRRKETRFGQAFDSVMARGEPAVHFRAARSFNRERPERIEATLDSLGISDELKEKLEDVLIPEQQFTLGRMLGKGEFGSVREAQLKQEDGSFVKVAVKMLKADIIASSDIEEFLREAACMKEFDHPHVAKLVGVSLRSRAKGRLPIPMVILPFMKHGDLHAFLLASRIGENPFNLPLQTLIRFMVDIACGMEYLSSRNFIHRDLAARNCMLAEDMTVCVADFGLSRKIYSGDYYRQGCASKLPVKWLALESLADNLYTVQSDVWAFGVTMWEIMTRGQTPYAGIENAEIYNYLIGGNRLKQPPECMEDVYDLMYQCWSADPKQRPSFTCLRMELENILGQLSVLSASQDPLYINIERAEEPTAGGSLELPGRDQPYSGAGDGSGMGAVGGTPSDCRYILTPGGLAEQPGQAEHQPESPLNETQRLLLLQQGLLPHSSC

[8] = system: BaF3; assay: cells; settings: Mus musculus, BaF3, 72 h
Description: Cytotoxicity against mouse BaF3 cells expressing LMNA fused TrkA G667S mutant assessed as inhibition of cell growth incubated for 3 days by CCK-8 assay

[9] = Clearance in Sprague-Dawley rat at 10 mg/kg, po measured up to 24 hrs by HPLC method; type: ADME, organism-based; settings: in vivo
[10] = system: BaF3; assay: cells; settings: Mus musculus, BaF3, 72 h; remark: listed apart in the source
Description: Cytotoxicity against mouse BaF3 cells expressing TEL fused TrkC G623R assessed as inhibition of cell growth incubated for 3 days by CCK-8 assay

[11] = Toxicity in NOD-SCID mouse assessed as histological changes in lung at 5 to 20 mg/kg, iv measured after 10 days by H and E staining based microscopic analysis; type: organism-based; settings: in vivo, 240 h, dose 5-20 mg/kg, time 10 day
[12] = system: BaF3; assay: cells; settings: Mus musculus, BaF3, 72 h; remark: listed apart in the source
Description: Cytotoxicity against mouse BaF3 cells expressing TEL fused TrkC assessed as inhibition of cell growth incubated for 3 days by CCK-8 assay

[13] = Oral bioavailability in Sprague-Dawley rat at 10 mg/kg measured up to 24 hrs by HPLC method; type: ADME, organism-based; settings: in vivo

- inhibition [2]: Active
- IC50 [6]: 32 nM
- IC50 [7]: 138 nM
- IC50 [8]: 6 nM
- CL/F [9]: 11.8 mL/min/kg
- IC50 [10]: 15 nM
- IC50 [12]: 13 nM
- bioavailability [13]: 19.8%
Compound: Cc1cc(NC(=O)Nc2cc(C(C)(C)C)nn2-c2ccc(Cl)cc2)ccc1Nc1ncnc2c1OC(C)(C)C(=O)N2
- inhibition [1]: Active
- Activity [3]: Active
- inhibition [4]: Active
- inhibition [5]: Active
- Activity [11]: Non-Toxic
